Test results from PubChem BioAssay AID588376 (Sanford-Burnham Center for Chemical Genomics, 2011).
Activity calls are given as the source filed them. The rule behind the calls is not given here.

What follows are molecules tested against Bcl-2-related protein A1 (Mus musculus) (UniProt Q07440) (assay: off-target activity on mouse Bfl-1 – biochemical, set 2, counter-screen for UBC13 polyubiquitination inhibitor project, SAR follow-up (AID 588376)). Settings: Bfl-1 biochemical counterscreen, dose response.
Bcl-2-related protein A1 (Mus musculus), sequence (Q07440 whole entry, looked up): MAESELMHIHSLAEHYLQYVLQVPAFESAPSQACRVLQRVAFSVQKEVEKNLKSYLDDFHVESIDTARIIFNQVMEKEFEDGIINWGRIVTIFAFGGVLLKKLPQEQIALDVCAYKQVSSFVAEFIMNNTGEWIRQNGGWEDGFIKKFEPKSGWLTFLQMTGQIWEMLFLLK

Structure (SMILES) | IC50
O=C(CN1CCC(n2c(C(F)(F)F)nc3cc(F)ccc32)CC1)Nc1ccc2c(c1)OCO2 | > 100 µM (inactive)
COC(=O)c1c(NC(=O)C(=O)NCC2CCCO2)sc2c1CC(C)(C)OC2 (configuration not stated) | > 100 µM (inactive)
O=C(CN1CCC(n2cnc3cc(C(F)(F)F)ccc32)CC1)Nc1ccc2c(c1)OCCO2 | > 100 µM (inactive)
CC1(C)Cc2c(sc(NC(=O)C(=O)N3CCCC3)c2C(N)=O)CO1 | > 100 µM (inactive)
COc1ccc(OC)c(NC(=O)CN2CCC(n3cnc4cc(F)ccc43)CC2)c1 | > 100 µM (inactive)
CC1(C)Cc2c(sc(NC(=O)C(=O)NCC3CCCO3)c2C(=O)O)CO1 (configuration not stated) | > 100 µM (inactive)
O=C(CN1CCC(n2cnc3cc(F)ccc32)CC1)Nc1cccc(C(F)(F)F)c1 | > 100 µM (inactive)
CCOc1ccc(NC(=O)CN2CCC(n3cnc4cc(F)ccc43)CC2)cc1 | > 100 µM (inactive)
Cc1nc2cc(F)ccc2n1C1CCN(CC(=O)Nc2ccccc2)CC1 | > 100 µM (inactive)
CC1(C)Cc2c(sc(NC(=O)C(=O)NCC3CCCO3)c2C(N)=O)CO1 (configuration not stated) | > 100 µM (inactive)
CC1(C)Cc2c(sc(NC(=O)C(=O)NCCN3CCOCC3)c2C(N)=O)CO1 | > 100 µM (inactive)
Cc1nc2ccccc2n1C1CCN(CC(=O)Nc2ccccc2Oc2ccccc2)CC1 | > 100 µM (inactive)
O=C(CN1CCC(n2cnc3cc(F)ccc32)CC1)Nc1ccccc1Br | > 100 µM (inactive)
COc1ccc(OC)c(NC(=O)CN2CCC(n3c(C)nc4cc(F)ccc43)CC2)c1 | > 100 µM (inactive)

The remaining lines, values ahead:

IC50 | Structure (SMILES)
> 100 µM (inactive) | O=C(C1CCN(c2ncnc3c2nc2n3CCCCC2)CC1)N1CCN(c2ncccn2)CC1
> 100 µM (inactive) | O=C(NCCCN1CCN(c2ccc(F)cc2)CC1)C1CCCN(c2ncnc3c2nc2n3CCCCC2)C1 (configuration not stated)
> 100 µM (inactive) | O=C(c1ccco1)N1CCN(C(=O)C2CCN(c3ncnc4c3nc3n4CCCCC3)CC2)CC1
> 100 µM (inactive) | O=C(NCCCN1CCN(c2ccccc2)CC1)C1CCCN(c2ncnc3c2nc2n3CCCCC2)C1 (configuration not stated)
> 100 µM (inactive) | COc1ccccc1N1CCN(CCCNC(=O)C2CCCN(c3ncnc4c3nc3n4CCCCC3)C2)CC1 (configuration not stated)
> 100 µM (inactive) | O=C(C1CCN(c2ncnc3c2nc2n3CCCCC2)CC1)N1CCN(c2ccc(F)cc2)CC1
> 100 µM (inactive) | Cc1cccc(NC(=O)CN2CCC(n3cnc4cc(F)ccc43)CC2)c1C
> 100 µM (inactive) | O=C(C1CCN(c2ncnc3c2nc2n3CCCCC2)CC1)N1CCN(c2ccccn2)CC1
> 100 µM (inactive) | COc1ccc(NC(=O)CN2CCC(n3c(C)nc4cc(F)ccc43)CC2)c(OC)c1
> 100 µM (inactive) | Cc1ccc(C)c(N2CCN(CCCNC(=O)C3CCCN(c4ncnc5c4nc4n5CCCCC4)C3)CC2)c1 (configuration not stated)
> 100 µM (inactive) | O=C(C1CCN(c2ncnc3c2nc2n3CCCCC2)CC1)N1CCN(Cc2ccccc2)CC1
> 100 µM (inactive) | Cc1cccc(N2CCN(CCCNC(=O)C3CCCN(c4ncnc5c4nc4n5CCCCC4)C3)CC2C)c1 (configuration not stated)
> 100 µM (inactive) | CCOc1ccccc1NC(=O)CN1CCC(n2cnc3cc(F)ccc32)CC1
